Source: ChEMBL document CHEMBL3507680, “University of Dundee, Gates Library screen for HepG2 cell viability”

Assay: Human HepG2 cell viability assay in 384 well format
Format: toxicity, cell-based
Design: dose 125 nL, time 70.5 hour; cytotoxicity at 70.5 h: concentration not given beside the values
Conditions: HepG2 cells, read-out: Inhibition

Compound	cytotoxicity at 70.5 h
CN1CCN(Cc2cn3c(n2)CN(C(=O)N2CCCC2)CC3)CC1	0.892%
CC(C)CC(=O)NC1CC2(CCN(CCF)CC2)Oc2ccccc21 (stereo not drawn)	-6.46%
COc1ccc(S(=O)(=O)NCCC(O)c2cccs2)c(C)c1 (stereo not drawn)	-8.98%
CC(C)c1ccc(O)c(C(=O)NCc2nncn2C)c1	-6.12%
Cc1cc(-c2cnc(NC3CC3)nc2-c2ccoc2)on1	2.18%
CCC1(CC)CC(=O)N(CC(O)c2cccc(Br)c2)C1=O (stereo not drawn)	28.9%
Cn1cc(CN2C[C@@H]3OCCN(CC4CCCC4)[C@@H]3C2)cn1	-7.97%
Cc1ccc(CCN2CCC(N(C)Cc3noc(C4CC4)n3)C2)cc1 (stereo not drawn)	3.87%
CN(C)C(C(=O)N1CC(Oc2ccccc2F)C1)c1ccc(F)cc1 (stereo not drawn)	-0.723%
O=C(CN1CC(c2nc(-c3cccs3)no2)C1)NCC1CCCO1 (stereo not drawn)	-2.94%
CN(C)C(=O)CN1C[C@@H]2CC[C@H](C1)N(Cc1c(F)cccc1Cl)C2	-6.28%
CC[C@@H]1N(Cc2ccco2)CCC[C@]12CCC(=O)N2C	12.7%
CN(C)C1CCN(Cc2cnc(S(C)(=O)=O)n2CC2CCCCC2)C1 (stereo not drawn)	-7.41%
O=C1CCc2cc(C(=O)NCc3ccc(Cl)s3)ccc2N1	-3.83%
COc1ccc(OCCN2CCOCS2(=O)=O)cc1	-6.02%
O=C(NCC(Cc1cccc(F)c1)N1CCCC1=O)C1CCCC1 (stereo not drawn)	-13.2%
COc1ccc(C)c2c1N(C(=O)c1cnc(C)s1)CCC2	-1.73%
CCc1noc(CN(CC)Cc2cc3ccc(F)cc3[nH]c2=O)n1	9.1%
CS(=O)(=O)N1CCN2C(=O)N(C3CCCCC3)C[C@H]2C1	7.82%
Cc1cc(NC(=O)CN2CCc3nn(C)c(=O)cc3C2)no1	-9.67%
Cn1cnc2c1CCN(CCCOc1ccc(S(C)(=O)=O)cc1)C2	-11.2%
CN(C)c1nccc(N2CCO[C@H]3CN(CC4CCOCC4)C[C@H]32)n1	-7.1%
CNC(=O)c1cccc(NC(=O)NCc2ccc(SC)cc2)c1C	-7.01%

Compound	cytotoxicity at 70.5 h
COc1ccc(F)cc1-c1nc2c([nH]1)c(C1CC1)nn2C	-4.46%
COc1cccc(-c2n[nH]cc2CNCC2CCS(=O)(=O)C2)c1 (stereo not drawn)	0.998%
COC(=O)CCCNC(=O)N1CCc2c(F)ccc(F)c2C1	-1.47%
Cc1c(S(=O)(=O)N(CCc2ccccc2)Cc2ccn(C)n2)cnn1C	-8.56%
CC(c1ccco1)N(C(=O)NCc1ccon1)C1CC1 (stereo not drawn)	56.7%
CCC(O)CN1CCN(C(=O)c2ccn(-c3cccc(F)c3)n2)CC1 (stereo not drawn)	-5.3%
Cc1cccc(C(C(=O)NCCn2cccc2)N(C)C)c1 (stereo not drawn)	-12.1%
CN(C)C[C@@H]1CCC[C@@H]2CN(c3cccnc3)C[C@@H]21	-1.5%
CN1CCCN(S(=O)(=O)c2cnn(C)c2)c2cc(Cl)ccc21	-3.72%
CCn1c(C)nnc1SCCNC(=O)Cn1cnc2ccccc2c1=O	-4.84%
COc1coc(CN2CCCC(CCc3c(F)cccc3F)C2)cc1=O (stereo not drawn)	-2.32%
CC(=O)N1CCN(C[C@H]2CC[C@@H](Cc3ccc4c(c3)OCO4)O2)CC1	-1.65%
COc1ccccc1NC(=O)CCNC(=O)c1ccoc1	0.887%
CC(C)(C)N1CC(C(=O)NCc2cn3cccnc3n2)CC1=O (stereo not drawn)	-5.98%
CCn1nc2c(cc1=O)CN(CC(=O)Nc1nccs1)CC2	-2.47%
CNC(=O)Cc1ccc(NC(=O)NCc2nc(C)sc2C)cc1	13.2%
COc1ccc(NC(=O)N2CCCC(CO)C2)c(C)c1 (stereo not drawn)	-6.09%
Cc1cccc(N2CCN(CC(=O)N3CCCC(N(C)C)CC3)CC2)c1 (stereo not drawn)	-4.61%
O=C(Cc1cccc(F)c1)NCCNCC1CNc2ccnn2C1 (stereo not drawn)	15.5%
Cc1ccsc1C1CCCCCN1Cc1cn(C)nc1C (stereo not drawn)	-13.5%
CNc1cc(C)nc(-c2cc(NCCO)nc3[nH]ccc23)n1	11.9%
CCOCCN1CCN(CC2(O)CCCCC2)CC1	-4.54%
CNc1ncc(CN(C)c2ncnc3onc(C)c23)cn1	8.52%

Compound	cytotoxicity at 70.5 h
CN(C)C(CNS(=O)(=O)c1cnn(C)c1)c1cccc(F)c1 (stereo not drawn)	-1.66%
Cc1nn(C)c(C)c1C1CCCN1Cc1cn2ccsc2n1 (stereo not drawn)	-0.408%
CC(=O)Nc1nc(CN2CCCCC2Cn2cccn2)cs1 (stereo not drawn)	6.38%
Cc1ccc(C(=O)NCCCS(=O)(=O)c2ccccc2)c(=O)[nH]1	-4.85%
COc1ccc(-c2noc(CN3CC(n4cc(C)cn4)C3)n2)cc1	-11.2%
Cc1nc(N)cc(C2CCN2CCOc2ccccc2)n1 (stereo not drawn)	-6.55%
COc1ccc(C(CNC(=O)c2cnc(C)cn2)N2CCOCC2)cc1 (stereo not drawn)	-3.63%
O=C(c1ccncc1)N1CCC2(CC1)CCN(Cc1ccccn1)C2=O	15.2%
O=S1(=O)NC(C2CCN(Cc3ccncc3)CC2)Nc2ccccc21 (stereo not drawn)	23.9%
CCOC(CC)C(=O)NCCC(=O)N1CCN(c2ncccn2)CC1 (stereo not drawn)	-18.6%
O=C(NCCN1CCOCC1)c1nc(-c2ccc3[nH]ccc3c2)no1	-30.5%
Cc1ccc(CS(=O)(=O)N2Cc3c(CN(C)C)nn(C)c3C2)cc1	-4.61%
Cc1cc(C)n(Cc2cc(C(=O)N3CCCCC3c3nccs3)n[nH]2)n1 (stereo not drawn)	8.98%
CN1CCC(c2nnc(CN3CCCC3)n2C2CC2)CC1	-6.39%
CCOC(=O)NC(CNC(=O)CCc1ccccn1)CC(C)C (stereo not drawn)	-8.82%
OC1CCN(c2ccnc(NCCc3ccccc3Cl)n2)CC1	-25.8%
Cc1ccccc1-n1cc(-c2ccnc(N3CCCC(CN)C3)n2)cn1 (stereo not drawn)	-7.47%
Cn1c(CCC(=O)N2CCCC3(CNC(=O)O3)C2)nc2cccnc21 (stereo not drawn)	-14.8%
CN(CCc1ccncc1)c1cnn(C)c(=O)c1Br	-24.9%
CC(NC(=O)c1cccs1)C(=O)NS(=O)(=O)Cc1ccc(C#N)cc1 (stereo not drawn)	4.04%
COCCNC(=O)N1CCCC(COc2ccccc2)C1 (stereo not drawn)	1.11%
CNc1cncc(C2CCCN2S(=O)(=O)c2ccccc2F)n1 (stereo not drawn)	-0.0855%
COCC(=O)Nc1ccc(N2CCC(OC)CC2)c(C(F)(F)F)c1	-0.835%

Compound	cytotoxicity at 70.5 h
CC(=O)Nc1ccc(CN2CCCC(c3cc4ncccc4[nH]3)C2)cc1 (stereo not drawn)	-5.47%
Clc1snnc1CN1CCOC(CNc2cccnn2)C1 (stereo not drawn)	-21.7%
Cc1cn2nc(Sc3nnnn3C)sc2n1	-4.31%
CCOc1cccc(COC(=O)c2scnc2C)n1	5.38%
Cc1cc(NCCCC(F)(F)F)n2nc(C)cc2n1	-1.87%
Cc1cnn(CCNCc2ccc(OCc3csc(C)n3)cc2)c1	-4.31%
CCc1nnc2n1CCN(CC(=O)Nc1cc(C(C)(C)C)nn1C)C2	0.0813%
Cn1cc(C(=O)N2CCCC(n3cccn3)C2)c2ccccc21 (stereo not drawn)	0.858%
COCCNC(=O)NCCc1cccc(OC)c1O	0.934%
CCc1nnsc1C(=O)N1CCCC(c2nc3ccccc3[nH]2)C1 (stereo not drawn)	-14.3%
CCc1ccc(C(C)NC(=O)c2ccc(CS(C)(=O)=O)o2)cc1 (stereo not drawn)	-4.79%
CC(C)NC(=O)CNC(=O)C12CCC(=O)N1c1cc(Cl)ccc1S2 (stereo not drawn)	-0.426%
CN(CCc1ccccc1)Cc1nc(Cc2cccc(F)c2)no1	0.246%
Cc1cc(CN2CCN(C(=O)NC(C)c3ccncc3)CC2)on1 (stereo not drawn)	-9.79%
CS(=O)(=O)Cc1nc(CNc2ccc(F)c(F)c2)cs1	-6.66%
CS(=O)(=O)N1C[C@H](C(=O)Nc2cccnc2)C[C@H]2OCC[C@H]21	6.21%
COCCCN1Cc2cccc(NC(=O)c3cc(F)cc(F)c3)c2C1	4.56%
CCN(C)c1ncnc2c1CCN(C(=O)c1ccccn1)CC2	17.4%
O=C(NC[C@]12COC[C@H]1CN(CC1CCOCC1)C2)c1ccccc1	1.78%
CC(C)CCC(C)NC(=O)Nc1ccccn1 (stereo not drawn)	-2.67%
Cc1n[nH]c(=O)c(C(=O)N2CCN(CCc3cccs3)CC2)c1C	-2.36%
CCSCCNC(=O)Nc1cc(C(=O)N2CCOCC2)ccc1Cl	-3.96%
Cn1nnc2c1C(COCc1ccccn1)CN(Cc1ccoc1)C2 (stereo not drawn)	-12.1%

Compound	cytotoxicity at 70.5 h
COCC(=O)N1C[C@@H]2CCCO[C@@H]2[C@H](N(C)Cc2ccco2)C1	-3.25%
Cc1cc(C)c(OCC(=O)NS(=O)(=O)c2cccnc2)c(C)c1	-3.3%
O=C(c1cnc(NCCC2CCCO2)c(Cl)c1)N1CCCCC1 (stereo not drawn)	-10%
Cc1cc(CCC(=O)NCc2nccn2C)ccc1Br	1.59%
CC(Cn1ccnc1)NC(=O)Cc1ccc2c(c1)OCCO2 (stereo not drawn)	-0.766%
Cc1nnc([C@@H]2C[C@H]3CN(C(=O)C4CC4)C[C@H]3O2)[nH]1	-5.22%
Cn1c(=O)[nH]c(=O)n2c(CC(=O)Nc3c(Cl)cccc3Cl)cnc12	-14.2%
CCC1CN(C(=O)c2cnc(-c3ccccc3)s2)CCO1 (stereo not drawn)	-1.27%
CCCOCCn1ncc(N2CCc3ccccc3C2)cc1=O	-1.9%
CC(C)CC(=O)N1CCC2(CC1)OC(C(N)=O)Cn1ccnc12 (stereo not drawn)	-8.87%
COCCC1(CNC(=O)NCC2CCCN(C)C2)CCC1 (stereo not drawn)	-12%
CCC(CC)c1cc(CNC(=O)N2CCCC(C(=O)NC)C2)on1 (stereo not drawn)	-0.471%
Cc1nc(N2CCN(C)CC2)ncc1C(=O)N1C[C@@H](C)[C@@](C)(O)C1	4.1%
CC(C)CN1CCO[C@H]2CCN(c3cnccn3)CC[C@@H]21	-8.81%
O=C(c1cccc(Cl)c1)N1CC[C@H]2[C@H]1CCN2CC1CC1	-9.45%
CNS(=O)(=O)Cc1ccc(CNC(=O)c2ccc(C)[nH]c2=O)cc1	-9.88%
COCc1cc(NCCc2ccc(OC)cc2)n2nccc2n1	-24.5%
CC(=O)N1CCN(CCNS(=O)(=O)c2cccc(F)c2)CC1	-0.607%
Cc1n[nH]c(C(=O)NCc2ccnc(OCC(F)(F)F)c2)c1Br	-4.39%
Cc1nccc(-c2cccc(NCC(=O)N3CCc4sccc4C3)c2)n1	2.9%
Cc1ccnn1CCN1CCCC2(CCC(=O)N(C3CCCC3)C2)C1 (stereo not drawn)	-21%
